Assays:
[1] = system: tumour spheroids of Colo357 cells; parameters: method as in PMID 33808994; details: cited from earlier work
KV10.1 (Eag1) = target: T1, KV10.1 (Eag1) (Homo sapiens, UniProt O95259); test: Whole-cell patch-clamp on stably transfected HEK-293 cells expressing KV10.1; assay type: cell-based; details: HEK293; 50 μM, HEK-293 cells, patch-clamp, mean ± SEM
T1 construct: expressed in transfected cells; host or cells: HEK-293 (stably transfected)
T1 sequence (O95259 1-962 isoform O95259-2): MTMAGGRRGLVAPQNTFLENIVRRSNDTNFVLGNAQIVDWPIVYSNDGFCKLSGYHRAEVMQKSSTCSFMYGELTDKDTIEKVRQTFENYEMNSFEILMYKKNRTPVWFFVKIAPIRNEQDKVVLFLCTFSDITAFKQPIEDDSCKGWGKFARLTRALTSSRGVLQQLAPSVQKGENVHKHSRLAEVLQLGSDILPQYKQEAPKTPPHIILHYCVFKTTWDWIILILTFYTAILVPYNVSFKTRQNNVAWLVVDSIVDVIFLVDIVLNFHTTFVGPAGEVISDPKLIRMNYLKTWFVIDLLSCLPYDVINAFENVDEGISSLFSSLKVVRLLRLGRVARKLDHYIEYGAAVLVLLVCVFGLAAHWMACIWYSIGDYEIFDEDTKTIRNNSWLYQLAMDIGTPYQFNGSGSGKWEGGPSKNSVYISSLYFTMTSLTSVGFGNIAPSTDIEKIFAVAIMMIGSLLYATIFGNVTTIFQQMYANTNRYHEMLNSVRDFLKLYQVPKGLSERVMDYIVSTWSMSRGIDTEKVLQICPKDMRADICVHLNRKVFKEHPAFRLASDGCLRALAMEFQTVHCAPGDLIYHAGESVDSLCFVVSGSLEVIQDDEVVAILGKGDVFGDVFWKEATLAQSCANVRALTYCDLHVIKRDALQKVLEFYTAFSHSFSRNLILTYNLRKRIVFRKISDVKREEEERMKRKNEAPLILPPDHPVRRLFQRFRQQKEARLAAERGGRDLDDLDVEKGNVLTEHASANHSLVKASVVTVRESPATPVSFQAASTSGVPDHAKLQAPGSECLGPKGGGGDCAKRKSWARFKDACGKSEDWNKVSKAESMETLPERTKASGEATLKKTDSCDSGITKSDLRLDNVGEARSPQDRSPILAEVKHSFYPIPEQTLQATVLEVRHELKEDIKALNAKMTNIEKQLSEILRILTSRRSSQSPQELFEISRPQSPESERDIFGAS
Procedure: For whole-cell patch-clamp measurements, stably transfected HEK-293 cells expressing KV10.1 [26, 27, 28] were grown in DMEM with 10% FCS and 300 µg/mL Zeocin on glass coverslips coated with fibronectin. All experiments were conducted at room temperature under perfusion by gravity with extracellular solution (160 mM NaCl, 2.5 mM KCl, 2 mM CaCl2, 1 mM MgCl2, 10 mM Hepes pH 7.4 with NaOH, 8 mM glucose). Pipettes were made from #1 glass capillaries (WPI) and had 1–3 MΩ resistance. The intracellular solution contained 100 mM KCl, 45 mM N-methyl-D-glucamine, 10 mM 1,2-bis(o-aminophenoxy)ethane-N,N,N′,N′-tetraacetic acid (BAPTA), 10 mM Hepes pH 7.35. Stimulation was applied and data were acquired with an EPC10 Plus amplifier (HEKA Elektronik) controlled with Patch Master software. Compounds were applied with an 8-channel fast solution exchanger (ALA). Compounds were prepared to a stock concentration of 10 mM in DMSO. The control solution contained 0.5% DMSO. Stimuli consisted of 500 ms depolarizations to +40 mV.
All electrophysiological data are presented as means ± SEM of n ≥ 3 independent experiments unless otherwise indicated. Oocyte data were analysed using pClamp Clampfit 10.4 (Molecular Devices, Downingtown, PA, USA) and OriginPro 9 (Originlab, Northampton, MA, USA) or GraphPad Prism 8 software (GraphPad Software, Inc., San Diego, CA, USA). Patch-clamp data analysis was performed using FitMaster (HEKA Electronics), IgorPro (Wavemetrics, Inc., Lake Oswego, OR, USA) and GraphPad Prism 9 (GraphPad Software, Inc., San Diego, CA, USA). The Dunnett test and one-way ANOVA were performed to calculate the significance of the induced inhibition compared to the control (p < 0.05).

Row | Structure (SMILES) | apoptosis in tumour spheroids of Colo357 cells [1] | inhibition at 50 µM (KV10.1 (Eag1))
1 | CN(C)CCCOc1ccc(Nc2ccc(C(F)(F)F)cc2[N+](=O)[O-])cc1 [Compound 2] | induced significant apoptosis | 
2 | O=[N+]([O-])c1cc(C(F)(F)F)ccc1Nc1ccc(OCC(O)CN2CCC(O)(COc3ccc(Cl)c(Cl)c3)CC2)cc1 (stereo not shown) [Compound 16a, 4-((3,4-Dichlorophenoxy)methyl)-1-(2-hydroxy-3-(4-((2-nitro-4-(trifluoromethyl)phenyl)amino)phenoxy)propyl)piperidin-4-ol] |  | 44.6 ± 8.6%
3 | COc1ccc(OCC2(O)CCN(CC(O)COc3ccc(Nc4ccc(C(F)(F)F)cc4[N+](=O)[O-])cc3)CC2)cc1 (stereo not shown) [Compound 16b, 1-(2-Hydroxy-3-(4-((2-nitro-4-(trifluoromethyl)phenyl)amino)phenoxy)propyl)-4-((4-methoxyphenoxy)methyl)piperidin-4-ol] |  | 60.7 ± 9.6%
4 | O=C(NC1CCN(CC(O)COc2ccc(Nc3ccc(C(F)(F)F)cc3[N+](=O)[O-])cc2)CC1)c1ccc(Cl)c(Cl)c1 (stereo not shown) [Compound 16c, 3,4-Dichloro-N-(1-(2-hydroxy-3-(4-((2-nitro-4-(trifluoromethyl)phenyl)amino)phenoxy)propyl)piperidin-4-yl)benzamide] |  | 26.8 ± 10.1%

Reference: article PMC9501377, “New Diarylamine KV10.1 Inhibitors and Their Anticancer Potential” (Pharmaceutics, 2022)
